Experimental findings from patent publication US11590116B2 (THERAVANCE BIOPHARMA R&D IP, LLC, priority 2019, dated 2023) are described below.

Test [1] relates to TGF-β-stimulated SMAD3 phosphorylation in BEAS-2B cells. Briefly: Cellular ALK5 potency assay, inhibition of TGF-β stimulated pSMAD3 formation in BEAS-2B cells. The test is classed as cell-based. Particulars: Homo sapiens; inhibition of TGF-β stimulated pSMAD3 formation, BEAS-2B cells; read-out: BEAS2B pIC50 (converted). In a few lines: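 pSMAD3 was quantified by AlphaLISA in BEAS-2B lysates after 10 ng/mL TGF-β (final) for 30 min. Before stimulation, cells received compound for 1 h at 37° C in supplemented HBSS. Values are pIC50, relative to TGF-β-stimulated cells without compound.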

Test [2] deals with T1, recombinant human ALK5 (TGF-βR1) protein (Homo sapiens, UniProt P36897).
T1 construct: purchased Life Technologies PR9075A
T1 sequence (P36897 34-503): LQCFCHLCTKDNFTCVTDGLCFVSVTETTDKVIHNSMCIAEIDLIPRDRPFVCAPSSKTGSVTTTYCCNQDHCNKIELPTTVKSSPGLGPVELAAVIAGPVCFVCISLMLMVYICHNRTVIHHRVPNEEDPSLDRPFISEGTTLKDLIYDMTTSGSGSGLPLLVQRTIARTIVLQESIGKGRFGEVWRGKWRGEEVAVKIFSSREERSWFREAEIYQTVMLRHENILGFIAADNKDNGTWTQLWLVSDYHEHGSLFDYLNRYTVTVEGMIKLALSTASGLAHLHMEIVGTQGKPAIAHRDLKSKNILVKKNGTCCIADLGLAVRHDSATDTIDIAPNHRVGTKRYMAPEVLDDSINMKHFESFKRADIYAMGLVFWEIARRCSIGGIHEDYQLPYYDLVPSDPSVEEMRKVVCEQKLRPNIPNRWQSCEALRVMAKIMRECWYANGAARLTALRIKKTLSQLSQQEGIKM
Briefly: Biochemical ALK5 (TGF-βR1) assay to measure pKi (LANCE Ultra ULight kinase assay). Particulars: apparent pKi from pIC50 by Cheng-Prusoff, read-out: ALK5 pKi (converted). In a few lines:
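Compounds (10 μM to 25 pM) were preincubated 60 min at room temperature with enzyme, then reactions were started with ATP (125 μM stock, 5× final) and run 60 min at 37 °C. EDTA-containing Eu-anti-phospho-Topo IIα (Thr1342) antibody stopped the reaction; TR-FRET read at 665 nm. pIC50 from 4-parameter fit, converted to pKi via Cheng-Prusoff.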
In general terms: Time-resolved FRET reads energy transfer from a long-lived donor to a nearby acceptor.

Consider `Cc1cccc(-c2[nH]cnc2-c2ccc3ncc(-c4csc(C(=O)OC[C@@H]5CCC[C@H](N)C5)c4)cc3c2)n1` (racemic) [Compound 1197, [rac-(1R,3S)-3-aminocyclohexyl]methyl 4-[6-[5-(6-methyl-2-pyridyl)-1H-imidazol-4-yl]-3-quinolyl]thiophene-2-carboxylate], for which the IC50 in test [1] was 25.1 to 158 nM. In addition, in test [2], the Ki was 0.0398 to 0.316 nM.

For `COCC1CN(c2cnc3ccc(-c4c[nH]nc4-c4cccc(C)n4)nc3c2)CCN1C` (racemic) [Compound 354, 2-[3-(6-methyl-2-pyridyl)-1H-pyrazol-4-yl]-7-[rac-(3R)-3-(methoxymethyl)-4-methyl-piperazin-1-yl]-1,5-naphthyridine], the IC50 in test [1] is 25.1 to 158 nM. The Ki in test [2] is below 0.0316 nM.

As to `CCOC(=O)c1c(-c2cccc(F)c2)cnc2ccc(-c3c[nH]nc3-c3cccc(C)n3)nc12` [Compound 859, ethyl 3-(3-fluorophenyl)-6-[3-(6-methyl-2-pyridyl)-1H-pyrazol-4-yl]-1,5-naphthyridine-4-carboxylate], the IC50 in test [1] is 200 to 1260 nM. The Ki in test [2] was 0.398 to 3.16 nM.

With `Cc1cccc(-c2n[nH]cc2-c2ccc3ncc(N(C)C4CCNC4)cc3n2)n1` (racemic) [Compound 242, N-methyl-6-[3-(6-methyl-2-pyridyl)-1H-pyrazol-4-yl]-N-[rac-(3R)-pyrrolidin-3-yl]-1,5-naphthyridin-3-amine], the IC50 in test [1] is 25.1 to 158 nM. In test [2], the Ki was 0.0398 to 0.316 nM.

With `Cc1cccc(-c2n[nH]cc2-c2ccc3ncc(N(C)CCCN4CCOCC4)cc3n2)n1` [Compound 506, N-methyl-6-[3-(6-methyl-2-pyridyl)-1H-pyrazol-4-yl]-N-(3-morpholinopropyl)-1,5-naphthyridin-3-amine], in test [1], the IC50 was 25.1 to 158 nM. The Ki in test [2] is 0.0398 to 0.316 nM.

With `Cc1cccc(-c2n[nH]cc2-c2ccc3ncc(-c4cnc5n4CCN5)cc3n2)n1` [Compound 681, 7-(6,7-dihydro-5H-imidazo[1,2-a]imidazol-3-yl)-2-[3-(6-methyl-2-pyridyl)-1H-pyrazol-4-yl]-1,5-naphthyridine], the IC50 in test [1] is 25.1 to 158 nM. In test [2], the Ki was below 0.0316 nM.

On to `Cc1cccc(-c2[nH]ncc2-c2ccc3ncc(C(=O)O[C@@H]4CCNC4)cc3n2)n1` [Compound 195, [(3R)-pyrrolidin-3-yl] 6-[5-(6-methyl-2-pyridyl)-1H-pyrazol-4-yl]-1,5-naphthyridine-3-carboxylate], for which the IC50 in test [1] is 25.1 to 158 nM. In test [2], the Ki was 0.398 to 3.16 nM.

Regarding `Cc1cccc(-c2nnn(C)c2-c2ccc3ncc(-c4cn[nH]c4)cc3c2)n1` [Compound 399, 6-[3-methyl-5-(6-methyl-2-pyridyl)triazol-4-yl]-3-(1H-pyrazol-4-yl)quinoline], in test [1], the IC50 is below 20 nM. The Ki in test [2] was below 0.0316 nM.

For the molecule `Cc1cccc(-c2[nH]cnc2-c2ccc3ncc(-c4cnc(C(=O)OCC5CNC5)nc4)cc3c2)n1` [Compound 1052, azetidin-3-ylmethyl 5-[6-[5-(6-methyl-2-pyridyl)-1H-imidazol-4-yl]-3-quinolyl]pyrimidine-2-carboxylate], the IC50 in test [1] was 200 to 1260 nM. Further, the Ki in test [2] is 0.398 to 3.16 nM.

Consider `Cc1cccc(-c2n[nH]cc2-c2ccc3ncc(N4CCC[C@@H](N(C)C)C4)cc3n2)n1` [Compound 433, (3R)-N,N-dimethyl-1-[6-[3-(6-methyl-2-pyridyl)-1H-pyrazol-4-yl]-1,5-naphthyridin-3-yl]piperidin-3-amine], for which the IC50 in test [1] is 25.1 to 158 nM. The Ki in test [2] was 0.0398 to 0.316 nM.

As for `Cc1cccc(-c2[nH]ncc2-c2ccc3nccc(C(=O)OCCC4CNC4)c3c2)n1` [Compound 1136, 2-(azetidin-3-yl)ethyl 6-[5-(6-methyl-2-pyridyl)-1H-pyrazol-4-yl]quinoline-4-carboxylate], the IC50 in test [1] was 200 to 1260 nM. The Ki in test [2] was 0.398 to 3.16 nM.

Regarding `Cc1cccc(-c2[nH]cnc2-c2ccc3ncc(-c4csc(C(=O)O[C@H]5C[C@@H](N)C5)c4)cc3c2)n1` [Compound 1243, (3-aminocyclobutyl) 4-[6-[5-(6-methyl-2-pyridyl)-1H-imidazol-4-yl]-3-quinolyl]thiophene-2-carboxylate], the IC50 in test [1] was 25.1 to 158 nM. In test [2], the Ki is below 0.0316 nM.

Consider `Cc1cccc(-c2[nH]nnc2-c2ccc3ncc(-c4cnn(C5CCCNC5)c4)cc3n2)n1` (stereo not shown) [Compound 602, 2-[5-(6-methyl-2-pyridyl)-1H-triazol-4-yl]-7-[1-(3-piperidyl)pyrazol-4-yl]-1,5-naphthyridine], for which, in test [1], the IC50 was 200 to 1260 nM. Besides, in test [2], the Ki was below 0.0316 nM.

As to `COc1[nH]nc(-c2cccc(C)n2)c1-c1ccc2ncc(-c3cnn4c3NCC4)cc2n1` [Compound 371, 7-(2,3-dihydro-1H-imidazo[1,2-b]pyrazol-7-yl)-2-[5-methoxy-3-(6-methyl-2-pyridyl)-1H-pyrazol-4-yl]-1,5-naphthyridine], in test [1], the IC50 is 200 to 1260 nM. Moreover, in test [2], the Ki is 0.398 to 3.16 nM.

On to `Cc1cccc(-c2nc3ccccn3c2-c2ccc3ncc(-c4nc5n(n4)CCNC5)cc3n2)n1` [Compound 415, 2-[2-(6-methyl-2-pyridyl)imidazo[1,2-a]pyridin-3-yl]-7-(5,6,7,8-tetrahydro-[1,2,4]triazolo[1,5-a]pyrazin-2-yl)-1,5-naphthyridine], for which the IC50 in test [1] was below 20 nM. Further, in test [2], the Ki was 0.0398 to 0.316 nM.

Take `Cc1cccc(-c2n[nH]cc2-c2ccc3ncc(-c4nc(C(F)(F)F)n5c4CNCC5)cc3n2)n1` [Compound 465, 2-[3-(6-methyl-2-pyridyl)-1H-pyrazol-4-yl]-7-[3-(trifluoromethyl)-5,6,7,8-tetrahydroimidazo[1,5-a]pyrazin-1-yl]-1,5-naphthyridine]: the IC50 in test [1] is 25.1 to 158 nM. The Ki in test [2] was 0.0398 to 0.316 nM.

Take `Cc1cccc(-c2n[nH]cc2-c2ccc3ncc(-c4cc5n(n4)CCN5)cc3n2)n1` [Compound 564, 7-(2,3-dihydro-1H-imidazo[1,2-b]pyrazol-6-yl)-2-[3-(6-methyl-2-pyridyl)-1H-pyrazol-4-yl]-1,5-naphthyridine]: the IC50 in test [1] is below 20 nM. Moreover, in test [2], the Ki is below 0.0316 nM.

In the case of `Cc1cccc(-c2n[nH]cc2-c2ccc3ncc(C(=O)NCCN4CCN(C(C)C)CC4)cc3n2)n1` [Compound 378, N-[2-(4-isopropylpiperazin-1-yl)ethyl]-6-[3-(6-methyl-2-pyridyl)-1H-pyrazol-4-yl]-1,5-naphthyridine-3-carboxamide], the IC50 in test [1] is 25.1 to 158 nM. Further, the Ki in test [2] was 0.0398 to 0.316 nM.

Regarding `Cc1cccc(-c2n[nH]cc2-c2ccc3ncc(N4CCNCC4)cc3c2)n1` [Compound 529, 6-[3-(6-methyl-2-pyridyl)-1H-pyrazol-4-yl]-3-piperazin-1-yl-quinoline], the IC50 in test [1] was below 20 nM. Besides, the Ki in test [2] was below 0.0316 nM.

In the case of `Cc1cccc(-c2n[nH]cc2-c2ccc3nccc(N4CCNCC4)c3n2)n1` [Compound 856, 2-[3-(6-methyl-2-pyridyl)-1H-pyrazol-4-yl]-8-piperazin-1-yl-1,5-naphthyridine], the IC50 in test [1] is 25.1 to 158 nM. In addition, in test [2], the Ki was 0.0398 to 0.316 nM.

Regarding `Cc1cccc(-c2nnn(Cc3ccccc3)c2-c2ccc3ncc(N4CCNCC4)cc3n2)n1` [Compound 359, 2-(1-benzyl-4-(6-methylpyridin-2-yl)-1H-1,2,3-triazol-5-yl)-7-(piperazin-1-yl)-1,5-naphthyridine], the IC50 in test [1] was 25.1 to 158 nM. Besides, in test [2], the Ki was 0.0398 to 0.316 nM.

As for `Cc1cccc(-c2[nH]cnc2-c2ccc3ncc(N4CCNC(CC(=O)O)C4)cc3c2)n1` (stereo not shown) [Compound 500, 2-(4-(6-(5-(6-methylpyridin-2-yl)-1H-imidazol-4-yl)quinolin-3-yl)piperazin-2-yl)acetic acid], in test [1], the IC50 was 1580 to 10000 nM. In test [2], the Ki was 0.0398 to 0.316 nM.

Turning to `Cc1cccc(-c2[nH]ncc2-c2ccc3ncc(C(=O)OCCN4CCNCC4)cc3c2)n1` [Compound 876, 2-(piperazin-1-yl)ethyl 6-(5-(6-methylpyridin-2-yl)-1H-pyrazol-4-yl)quinoline-3-carboxylate], the IC50 in test [1] was below 20 nM. Moreover, the Ki in test [2] is 0.0398 to 0.316 nM.

`Cc1cccc(-c2[nH]cnc2-c2ccc3ncc(-c4ccc(C(=O)OC5CNC5)cc4)cc3c2)n1` [Compound 663, azetidin-3-yl 4-[6-[5-(6-methyl-2-pyridyl)-1H-imidazol-4-yl]-3-quinolyl]benzoate]: the IC50 in test [1] was 25.1 to 158 nM. Also, the Ki in test [2] is 0.0398 to 0.316 nM.

Turning to `Cc1cccc(-c2[nH]cnc2-c2ccc3ncc(-c4cn5c(n4)CNCC5)cc3c2)n1` [Compound 645, 6-[5-(6-methyl-2-pyridyl)-1H-imidazol-4-yl]-3-(5,6,7,8-tetrahydroimidazo[1,2-a]pyrazin-2-yl)quinoline], the IC50 in test [1] is 200 to 1260 nM. Moreover, in test [2], the Ki is 0.0398 to 0.316 nM.

`Cc1cccc(-c2[nH]cnc2-c2ccc3ncc(-c4cnn(C5CNC5)c4)cc3c2)n1` [Compound 434, 3-[1-(azetidin-3-yl)pyrazol-4-yl]-6-[5-(6-methyl-2-pyridyl)-1H-imidazol-4-yl]quinoline]: in test [1], the IC50 was 25.1 to 158 nM. In addition, the Ki in test [2] is below 0.0316 nM.
